# Measured values as given in patent publication EP0240392A1, “Compounds of the cyclophosphazene type, process for their preparation and pharmaceutical preparation containing them” (CENTRE NATIONAL DE LA RECHERCHE SCIENTIFIQUE (CNRS), priority 1986, dated 1987).
# Read-outs that look alike come from different tables or passages of the source.
# Assays:
# [1] = Solubility in water and physiological serum; format: physicochemical
# From the text: La solubilité dans l'eau et dans le sérum physiologique est supérieure à 20 g/l ce qui est donc largement suffisant pour la réalisation de formes injectables.
# [2] = Acute toxicity i.p. in mice (DLo, maximal non-lethal dose); format: in vivo, souris mâles Swiss ou CD2F1
# Procedure: La toxicité de SPM a été déterminée sur des souris mâles Swiss ou CD2F1. La léthalité, quand elle existe, apparaît systématiquement aux jours 5 et 6 après l'adminstration par voie i.p. L'enregistrement de cette léthalité en fonction de la dose injectée permet de déduire la DLo qui est la dose maximale non léthale. La même valeur de DLo a été obtenue chez les Swiss et les CD2F1 : elle a été trouvée égale à 1 500 mg/kg. C'est là un résultat remarquable.
# LEUCEMIE L1210 = assay: Antitumour activity on L1210 leukemia implanted i.p. in mice; format: in vivo, souris CD2F1; design: key to T/C (%): Δ: 2 souris mortes avant le 5ème jour, 1 souris au jour 6, 2 souris au jour 16 et la dernière était encore vivante après le 40ème jour
# From the text: (§1) Les tests d'activité antitumorale ont été conduits au sein du Screening and Pharmacology Group de l'E.O.R.T.C., implanté à l'Institut Mario Negri de Milan.
# (§2) Ces essais ont été conduits soit en mono-injection à différentes doses au jour J+1 suivant la greffe de la tumeur, soit en poly-injections chroniques Q1D, soit en protocoles Q4D.
# (§3) L'activité antitumorale est mesurée par le rapport T/C %, T (en jours) étant le durée moyenne de vie des souris traitées, C (en jours) étant la durée moyenne de vie des souris témoins.
# (§4) L'effet thérapeutique est considéré comme significatif quant T/C % est supérieur ou égal à 125.
# [3] = tested on: LEUCEMIE P388 INTRACEREBRALE; assay: Antitumour activity on intracerebral P388 leukemia in mice; format: in vivo, souris CD2F1; settings: Tableau 2, inoculation i.c.
# From the text: as §1, §2, §3, §4
# [4] = tested on: RETICULO SARCOME M5076 MURIN; assay: Antitumour activity on murine M5076 reticulum sarcoma implanted i.m. in mice; format: in vivo, souris C57Bl/6; settings: for Poids corporel (g±S.E.) / Poids de la rate (mg±S.E.) / Poids de la tumeur (g±S.E.) / Poids du foie (g±S.E.): jour 23
# From the text: as §1, §2
# [5] = 100 mg/kg i.p. x j 1-9, jour 21
# [6] = 150 mg/kg i.p. x j 1,5,9, jour 14
# [7] = 150 mg/kg i.p. x j 1,5,9, jour 21
smiles,measurement,setting,value
C(CCN1CCCNP12=NP(N1CC1)(N1CC1)=NP(N1CC1)(N1CC1)=N2)CN1CCCNP12=NP(N1CC1)(N1CC1)=NP(N1CC1)(N1CC1)=N2 (stereo not drawn) [SPM],solubility,"[1]; serum, sérum physiologique, read-out: solubilité dans le sérum physiologique",> 20 mg/mL
same,solubility,"[1]; water, eau, read-out: solubilité dans l'eau",> 20 mg/mL
same,DLo (dose maximale non léthale),"[2]; souris mâles CD2F1, i.p.",1 500 mg/kg
same,DLo (dose maximale non léthale),"[2]; souris mâles Swiss, i.p.",1 500 mg/kg
same,T/C (%),"LEUCEMIE L1210; Tableau 1, 25 mg/kg i.p. x j 1,5,9",117%
same,T/C (%),"LEUCEMIE L1210; Tableau 1, 25 mg/kg i.p. x j 1-9",131%
same,T/C (%),"LEUCEMIE L1210; Tableau 1, 50 mg/kg i.p. x j 1",131%
same,T/C (%),"LEUCEMIE L1210; Tableau 1, 50 mg/kg i.p. x j 1,5,9",131%
same,T/C (%),"LEUCEMIE L1210; Tableau 1, 50 mg/kg i.p. x j 1-9",150%
same,T/C (%),"LEUCEMIE L1210; Tableau 1, 75 mg/kg i.p. x j 1-9",140%
same,T/C (%),"LEUCEMIE L1210; Tableau 1, 100 mg/kg i.p. x j 1",125%
same,T/C (%),"LEUCEMIE L1210; Tableau 1, 100 mg/kg i.p. x j 1,5,9",137%
same,T/C (%),"LEUCEMIE L1210; Tableau 1, 100 mg/kg i.p. x j 1-9",140%
same,T/C (%),"LEUCEMIE L1210; Tableau 1, 150 mg/kg i.p. x j 1-9",170%
same,T/C (%),"LEUCEMIE L1210; Tableau 1, 200 mg/kg i.p. x j 1",156%
same,T/C (%),"LEUCEMIE L1210; Tableau 1, 200 mg/kg i.p. x j 1,5,9",159%
same,T/C (%),"LEUCEMIE L1210; Tableau 1, 300 mg/kg i.p. x j 1",135%
same,T/C (%),"LEUCEMIE L1210; Tableau 1, 300 mg/kg i.p. x j 1,5,9",164%
same,T/C (%),"LEUCEMIE L1210; Tableau 1, 400 mg/kg i.p. x j 1",130%
same,T/C (%),"LEUCEMIE L1210; Tableau 1, 12,5 mg/kg i.p. x j 1-9",112%
same,T/C (%),"LEUCEMIE L1210; Tableau 10, 25 mg/kg i.p. x j 1-9",141%
same,T/C (%),"LEUCEMIE L1210; Tableau 10, 50 mg/kg i.p. x j 1,5,9",123%
same,T/C (%),"LEUCEMIE L1210; Tableau 10, 50 mg/kg i.p. x j 1-9",152%
same,T/C (%),"LEUCEMIE L1210; Tableau 10, 100 mg/kg i.p. x j 1",135%
same,T/C (%),"LEUCEMIE L1210; Tableau 10, 100 mg/kg i.p. x j 1,5,9",152%
same,T/C (%),"LEUCEMIE L1210; Tableau 10, 100 mg/kg i.p. x j 1-9",170%
same,T/C (%),"LEUCEMIE L1210; Tableau 10, 150 mg/kg i.p. x j 1,5,9",176%
same,T/C (%),"LEUCEMIE L1210; Tableau 10, 150 mg/kg i.p. x j 1-9",182%
same,T/C (%),"LEUCEMIE L1210; Tableau 10, 200 mg/kg i.p. x j 1",147%
same,T/C (%),"LEUCEMIE L1210; Tableau 10, 250 mg/kg i.p. x j 1,5,9",194%
same,T/C (%),"LEUCEMIE L1210; Tableau 10, 300 mg/kg i.p. x j 1",158%
same,T/C (%),"LEUCEMIE L1210; Tableau 10, 400 mg/kg i.p. x j 1",Δ
same,activité sur la leucémie L1210 (result in words),LEUCEMIE L1210; quel que soit le protocole utilisé,relativement faible
same,T/C (%),[3]; 100 mg/kg i.p. x 9 (j 1 à 9),141%
same,T/C (%),[3]; 150 mg/kg i.p. x 9 (j 1 à 9),123%
same,T/C (%),[3]; 200 mg/kg i.p. x 9 (j 1 à 9),129%
same,Volume moyen de la tumeur (cm^3 ± S.E.),"[4]; 50 mg/kg i.p. x j 1-9, jour 14","0,38±0,01 cm^3"
same,nombre de souris avec tumeur/total,"[4]; 50 mg/kg i.p. x j 1-9, jour 14",4/10
same,Volume moyen de la tumeur (cm^3 ± S.E.),"[4]; 50 mg/kg i.p. x j 1-9, jour 21","2,03±0,17 cm^3"
same,nombre de souris avec tumeur/total,"[4]; 50 mg/kg i.p. x j 1-9, jour 21",9/9
same,Poids corporel (g±S.E.),[4]; 50 mg/kg i.p. x j 1-9,"20,05±0,60 g"
same,Poids de la rate (mg±S.E.),[4]; 50 mg/kg i.p. x j 1-9,"206,8±12,0 mg"
same,Poids de la tumeur (g±S.E.),[4]; 50 mg/kg i.p. x j 1-9,"3,4033±0,26 g"
same,Poids du foie (g±S.E.),[4]; 50 mg/kg i.p. x j 1-9,"1,6089±0,10 g"
same,nombre de souris avec tumeur/total,"[4]; 100 mg/kg i.p. x j 1-9, jour 14",- (0/10)
same,Volume moyen de la tumeur (cm^3 ± S.E.),[4]; [5],"0,92±0,03 cm^3"
same,nombre de souris avec tumeur/total,[4]; [5],12/12
same,Poids corporel (g±S.E.),[4]; 100 mg/kg i.p. x j 1-9,"20,22±0,37 g"
same,Poids de la rate (mg±S.E.),[4]; 100 mg/kg i.p. x j 1-9,"137,9±5,04 mg"
same,Poids de la tumeur (g±S.E.),[4]; 100 mg/kg i.p. x j 1-9,"2,1947±0,07 g"
same,Poids du foie (g±S.E.),[4]; 100 mg/kg i.p. x j 1-9,"1,1750±0,03 g"
same,Volume moyen de la tumeur (cm^3 ± S.E.),[4]; [6],"0,41±0,04 cm^3"
same,nombre de souris avec tumeur/total,[4]; [6],4/10
same,Volume moyen de la tumeur (cm^3 ± S.E.),[4]; [7],"2,23±0,16 cm^3"
same,nombre de souris avec tumeur/total,[4]; [7],10/10
same,Poids corporel (g±S.E.),"[4]; 150 mg/kg i.p. x j 1,5,9","21,55±0,29 g"
same,Poids de la rate (mg±S.E.),"[4]; 150 mg/kg i.p. x j 1,5,9","240,7±17,1 mg"
same,Poids de la tumeur (g±S.E.),"[4]; 150 mg/kg i.p. x j 1,5,9","3,5869±0,18 g"
same,Poids du foie (g±S.E.),"[4]; 150 mg/kg i.p. x j 1,5,9","1,7270±0,10 g"
same,nombre de souris avec tumeur/total,"[4]; 150 mg/kg i.p. x j 1-9, jour 14",- (0/10)
